Laboratory results published in US5378473A, “Transdermal administration of short or intermediate half-life benzodiazepines” (Cygnus Therapeutic Systems, priority 1993, dated 1995).

Assay: Estimate of skin flux required to deliver therapeutically effective amounts of alprazolam transdermally
Details: practical skin area (less than about 100 cm^2); estimated from published pharmacokinetic data
Description: Based on the published pharmacokinetic data on alprazolam, applicants estimated that skin flux in the range of at least about 1 μg/cm^2 /hr would be required to deliver therapeutically effective amounts of alprazolam transdermally through a practical skin area (i.e., less than about 100 cm^2). However, when applicants measured the in vitro flux of alprazolam through skin from a propylene glycol solution, they found the flux was several-fold less than the flux required to deliver a therapeutic amount of the drug through such an area of skin. […]

Cc1nnc2n1-c1ccc(Cl)cc1C(c1ccccc1)=NC2 [Alprazolam, 8-chloro-1-methyl-6-phenyl-4H-1,2,4-triazolo(4,3-a)(1,4)benzodiazepine]
skin flux required to deliver therapeutically effective amounts transdermally: at least 1 μg/cm^2 /hr
